Data on 7 molecules can be found in the RepoRT retention time repository (doi:10.1016/j.foodchem.2021.129757).

The structures appear in SMILES notation.

The first series can be described thus: RP, 100 × 0.5 mm, 2.7 µm, 45 °C, 0.015 mL/min, estimated dead time 0.83 min; A: water + 0.9% formic acid; B: acetonitrile + 0.9% formic acid; gradient (min/%B) 0/1 0.5/1 4/95 4.5/1 5/1. The conditions noted are these: stereoisomer not certain.
Consider `O=c1cc(-c2ccc(O)cc2)oc2cc(OC3OC(CO)C(O)C(O)C3O)cc(O)c12` (stereo not given) [Apigenin 7-O-glucoside], for which the LC retention time is 2.89 min.

As for `O=C(O)Cc1ccc(O)cc1` [4-Hydroxyphenylacetic acid], the LC retention time is 2.71 min.

For `O=C(O)C1OC(Oc2c(-c3ccc(O)cc3)oc3cc(O)cc(O)c3c2=O)C(O)C(O)C1O` (stereo not given) [Kaempferol-3-O-glucuronide], the LC retention time was 2.39 min.

For `O=C(O)CCc1ccc(O)c(O)c1` [Dihydrocaffeic acid], the LC retention time is 2.4 min.

For `O=C(O)CCc1ccc(O)cc1` [Phloretic acid], the LC retention time was 2.32 min.

Consider `COc1ccc(C2CC(=O)c3c(O)cc(O)cc3O2)cc1O` (stereo not given) [Hesperetin], for which the LC retention time is 3.27 min.

As for `COc1cc(C=CC(=O)CC(=O)C=Cc2ccc(O)c(OC)c2)ccc1O` [Curcumin], the LC retention time is 3.75 min.

A further series is described as follows: RP, 150 × 2.1 mm, 2.6 µm, 40 °C, 0.35 mL/min, estimated dead time 0.94 min; A: water + 0.1% formic acid, pH 3; B: acetonitrile + 0.1% formic acid, pH 3; gradient (min/%B) 0/0 1/5 7/45 8.5/80 10.5/80 11/5 12/5. The conditions noted are these: stereoisomer not certain.
As to `O=c1cc(-c2ccc(O)cc2)oc2cc(OC3OC(CO)C(O)C(O)C3O)cc(O)c12` (stereo not given) [Apigenin 7-O-glucoside], the LC retention time was 6.23 min.

As to `O=C(O)Cc1ccc(O)cc1` [4-Hydroxyphenylacetic acid], the LC retention time was 4.34 min.

Turning to `COc1ccc(C2CC(=O)c3c(O)cc(O)cc3O2)cc1O` (stereo not given) [Hesperetin], the LC retention time was 8.21 min.

Another series can be described thus: RP, 150 × 2.1 mm, 2.6 µm, 40 °C, 0.35 mL/min, estimated dead time 0.94 min; A: water + 0.1% formic acid, pH 3; B: acetonitrile + 0.1% formic acid, pH 3; gradient (min/%B) 0/0 1/0 12.5/100 14/100 14.2/0 15/0. The conditions noted are these: stereoisomer not certain.
Consider `O=c1cc(-c2ccc(O)cc2)oc2cc(OC3OC(CO)C(O)C(O)C3O)cc(O)c12` (stereo not given) [Apigenin 7-O-glucoside], for which the LC retention time is 6.07 min.

In the case of `O=C(O)Cc1ccc(O)cc1` [4-Hydroxyphenylacetic acid], the LC retention time was 4.61 min.

With `COc1ccc(C2CC(=O)c3c(O)cc(O)cc3O2)cc1O` (stereo not given) [Hesperetin], the LC retention time was 7.8 min.

The next series is described as follows: RP, Phenomenex Luna C18, 150 × 4.6 mm, 3 µm, 25 °C, 0.5 mL/min, estimated dead time 3.2 min; A: water + 0.1% formic acid, pH 3; B: acetonitrile + 0.1% formic acid, pH 3; gradient (min/%B) 0/0 30/30 35/40 50/80 52/80 60/0 65/0. The conditions noted are these: stereoisomer not certain.
Regarding `O=c1cc(-c2ccc(O)cc2)oc2cc(OC3OC(CO)C(O)C(O)C3O)cc(O)c12` (stereo not given) [Apigenin 7-O-glucoside], the LC retention time was 27.6 min.

For `O=C(O)Cc1ccc(O)cc1` [4-Hydroxyphenylacetic acid], the LC retention time is 14.7 min.

Turning to `O=C(O)C1OC(Oc2c(-c3ccc(O)cc3)oc3cc(O)cc(O)c3c2=O)C(O)C(O)C1O` (stereo not given) [Kaempferol-3-O-glucuronide], the LC retention time is 27.4 min.

Regarding `O=C(O)CCc1ccc(O)c(O)c1` [Dihydrocaffeic acid], the LC retention time was 14.2 min.

As to `O=C(O)CCc1ccc(O)cc1` [Phloretic acid], the LC retention time was 19.9 min.

Take `COc1ccc(C2CC(=O)c3c(O)cc(O)cc3O2)cc1O` (stereo not given) [Hesperetin]: the LC retention time was 42.5 min.

For `COc1cc(C=CC(=O)CC(=O)C=Cc2ccc(O)c(OC)c2)ccc1O` [Curcumin], the LC retention time was 48.7 min.

A short description of the next series: RP, Waters Atlantis T3, 100 × 2.1 mm, 3 µm, 40 °C, 0.3 mL/min, estimated dead time 0.73 min; A: water + 0.1% trifluoroacetic acid, pH 2; B: acetonitrile + 0.1% trifluoroacetic acid, pH 2; gradient (min/%B) 0/10 1/10 6/40 7/50 8/50 14/70 16/80 20/10 25/10. The conditions noted are these: stereoisomer not certain.
Consider `O=c1cc(-c2ccc(O)cc2)oc2cc(OC3OC(CO)C(O)C(O)C3O)cc(O)c12` (stereo not given) [Apigenin 7-O-glucoside], for which the LC retention time is 7.96 min.

On to `COc1ccc(C2CC(=O)c3c(O)cc(O)cc3O2)cc1O` (stereo not given) [Hesperetin], for which the LC retention time is 10.4 min.

A short description of another series: RP, Agilent ZORBAX RRHD Eclipse Plus C18, 50 × 2.1 mm, 1.8 µm, 30 °C, 0.4 mL/min, estimated dead time 0.28 min; A: water + 0.1% formic acid, pH 3; B: acetonitrile + 0.1% formic acid, pH 3; gradient (min/%B) 0/1 5/10 8/25 9.1/99 10/99 12/1. The conditions noted are these: stereoisomer not certain.
As to `O=C(O)C1OC(Oc2c(-c3ccc(O)cc3)oc3cc(O)cc(O)c3c2=O)C(O)C(O)C1O` (stereo not given) [Kaempferol-3-O-glucuronide], the LC retention time is 8.37 min.

With `O=C(O)CCc1ccc(O)c(O)c1` [Dihydrocaffeic acid], the LC retention time is 5.05 min.

On to `O=C(O)CCc1ccc(O)cc1` [Phloretic acid], for which the LC retention time was 6.75 min.

The nature of the next series: RP, Phenomenex Luna Omega Polar C18, 100 × 2.1 mm, 1.6 µm, 40 °C, 0.5 mL/min, estimated dead time 0.44 min; A: water + 0.5% formic acid; B: acetonitrile + 0.5% formic acid; gradient (min/%B) 0/5 3/50 3.1/100 5/100 5.1/5 7/5. The conditions noted are these: stereoisomer not certain.
`O=c1cc(-c2ccc(O)cc2)oc2cc(OC3OC(CO)C(O)C(O)C3O)cc(O)c12` (stereo not given) [Apigenin 7-O-glucoside]: the LC retention time was 2.6 min.

Take `O=C(O)Cc1ccc(O)cc1` [4-Hydroxyphenylacetic acid]: the LC retention time was 1.15 min.

As to `O=C(O)C1OC(Oc2c(-c3ccc(O)cc3)oc3cc(O)cc(O)c3c2=O)C(O)C(O)C1O` (stereo not given) [Kaempferol-3-O-glucuronide], the LC retention time is 2.53 min.

As for `O=C(O)CCc1ccc(O)c(O)c1` [Dihydrocaffeic acid], the LC retention time is 2.6 min.

Turning to `O=C(O)CCc1ccc(O)cc1` [Phloretic acid], the LC retention time is 2.19 min.

As to `COc1ccc(C2CC(=O)c3c(O)cc(O)cc3O2)cc1O` (stereo not given) [Hesperetin], the LC retention time was 3.57 min.

In the case of `COc1cc(C=CC(=O)CC(=O)C=Cc2ccc(O)c(OC)c2)ccc1O` [Curcumin], the LC retention time is 3.84 min.

Another series can be described thus: RP, Waters ACQUITY UPLC BEH Shield RP18, 100 × 2.1 mm, 1.7 µm, 30 °C, 0.6 mL/min, estimated dead time 0.37 min; A: water + 0.1% formic acid, pH 3; B: acetonitrile + 0.1% formic acid, pH 3; gradient (min/%B) 0/0 2/0 7/10 22/95 22.1/0 26/0. The conditions noted are these: stereoisomer not certain.
As for `O=c1cc(-c2ccc(O)cc2)oc2cc(OC3OC(CO)C(O)C(O)C3O)cc(O)c12` (stereo not given) [Apigenin 7-O-glucoside], the LC retention time is 13.5 min.

In the case of `O=C(O)Cc1ccc(O)cc1` [4-Hydroxyphenylacetic acid], the LC retention time was 7.43 min.

As for `O=C(O)C1OC(Oc2c(-c3ccc(O)cc3)oc3cc(O)cc(O)c3c2=O)C(O)C(O)C1O` (stereo not given) [Kaempferol-3-O-glucuronide], the LC retention time was 13.7 min.

On to `O=C(O)CCc1ccc(O)c(O)c1` [Dihydrocaffeic acid], for which the LC retention time was 8.08 min.

On to `O=C(O)CCc1ccc(O)cc1` [Phloretic acid], for which the LC retention time is 10.4 min.

Turning to `COc1ccc(C2CC(=O)c3c(O)cc(O)cc3O2)cc1O` (stereo not given) [Hesperetin], the LC retention time is 15.5 min.

Consider `COc1cc(C=CC(=O)CC(=O)C=Cc2ccc(O)c(OC)c2)ccc1O` [Curcumin], for which the LC retention time is 18.2 min.

A further series in a line: RP, Phenomenex Synergi Hydro-RP, 150 × 2 mm, 4 µm, 30 °C, 0.5 mL/min, estimated dead time 0.6 min; A: water + 0.1% formic acid, pH 3; B: acetonitrile + 0.1% formic acid, pH 3; gradient (min/%B) 0/5 1/5 35/45 40/100 45/100. The conditions noted are these: stereoisomer not certain.
As for `O=c1cc(-c2ccc(O)cc2)oc2cc(OC3OC(CO)C(O)C(O)C3O)cc(O)c12` (stereo not given) [Apigenin 7-O-glucoside], the LC retention time was 17.9 min.

As for `O=C(O)Cc1ccc(O)cc1` [4-Hydroxyphenylacetic acid], the LC retention time is 11.9 min.

As for `O=C(O)C1OC(Oc2c(-c3ccc(O)cc3)oc3cc(O)cc(O)c3c2=O)C(O)C(O)C1O` (stereo not given) [Kaempferol-3-O-glucuronide], the LC retention time was 17.4 min.

For `O=C(O)CCc1ccc(O)c(O)c1` [Dihydrocaffeic acid], the LC retention time is 14.6 min.

Consider `O=C(O)CCc1ccc(O)cc1` [Phloretic acid], for which the LC retention time was 11.7 min.

For `COc1ccc(C2CC(=O)c3c(O)cc(O)cc3O2)cc1O` (stereo not given) [Hesperetin], the LC retention time was 26.6 min.

As to `COc1cc(C=CC(=O)CC(=O)C=Cc2ccc(O)c(OC)c2)ccc1O` [Curcumin], the LC retention time is 37.7 min.

The next series in a line: RP, 50 × 0.5 mm, 2.7 µm, 35 °C, 0.01 mL/min, estimated dead time 0.62 min; A: water + 0.1% formic acid, pH 3; B: acetonitrile + 0.1% formic acid, pH 3; gradient (min/%B) 0/5 12/95 14/95 16/5. The conditions noted are these: stereoisomer not certain.
Take `O=c1cc(-c2ccc(O)cc2)oc2cc(OC3OC(CO)C(O)C(O)C3O)cc(O)c12` (stereo not given) [Apigenin 7-O-glucoside]: the LC retention time was 4.87 min.

With `O=C(O)Cc1ccc(O)cc1` [4-Hydroxyphenylacetic acid], the LC retention time is 2.53 min.

`O=C(O)C1OC(Oc2c(-c3ccc(O)cc3)oc3cc(O)cc(O)c3c2=O)C(O)C(O)C1O` (stereo not given) [Kaempferol-3-O-glucuronide]: the LC retention time is 4.81 min.

Take `O=C(O)CCc1ccc(O)c(O)c1` [Dihydrocaffeic acid]: the LC retention time was 2.6 min.
